Peptide text beside a SMILES is read from it. * marks the point of attachment. Biotin = O=C1N[C@H]2[C@H](CS[C@H]2CCCCC(=O)*)N1; PEG4 = NCCOCCOCCOCCOCCC(=O)O
Experiments:
[1] = molecular target: T1, SARS-CoV-2 S1 protein (Severe acute respiratory syndrome coronavirus 2, UniProt P0DTC2); test: biochemical; assay type: binding; conditions: for kon: read-out: S1 Protein in Binding Buffer ka (1/Ms); for koff: read-out: S1 Protein in Binding Buffer kdis (1/s)
T1 construct: immobilized SARS-CoV-2 S1 protein (His-tag, #S1N-C52H3, Acro Biosystems); His-tag; purchased Acro Biosystems S1N-C52H3

[2] = molecular target: T1, SARS-CoV-2 S1 protein; assay type: binding

SMILES: CC(C)C[C@H](NC(=O)[C@H](CC(=O)O)NC(=O)[C@H](CCC(=O)O)NC(=O)[C@H](Cc1c[nH]c2ccccc12)NC(=O)[C@H](CCC(=O)O)NC(=O)[C@H](CC(C)C)NC(=O)[C@H](CC(N)=O)NC(=O)[C@H](Cc1ccccc1)NC(=O)[C@@H](NC(=O)[C@H](Cc1ccccc1)NC(=O)[C@H](CC(C)C)NC(=O)[C@H](Cc1ccccc1)NC(=O)[C@H](CC(C)C)NC(=O)[C@@H](NC(=O)[C@H](Cc1c[nH]c2ccccc12)NC(=O)[C@H](CC(=O)O)NC(=O)CCOCCOCCOCCOCCNC(=O)CCCC[C@@H]1SC[C@@H]2NC(=O)N[C@@H]21)[C@@H](C)O)C(C)C)C(=O)N[C@@H](Cc1ccccc1)C(=O)N[C@@H](Cc1ccc(O)cc1)C(=O)O [Peptide P89] ({Biotin-PEG4}-DWTLFLFVFNLEWEDLFY-OH; C-terminus assumed)
- kon [1]: 7800 M⁻¹ s⁻¹
- koff [1]: 0.000969 s⁻¹
- binding to S1 protein in ELISA-like assay (in words) [2]: higher binding affinity than the original ACE2 fragment (SBP1)

SMILES: CC[C@H](C)[C@H](NC(=O)[C@H](CC(=O)O)NC(=O)[C@H](Cc1ccccc1)NC(=O)[C@H](CC(N)=O)NC(=O)CCOCCOCCOCCOCCNC(=O)CCCC[C@@H]1SC[C@@H]2NC(=O)N[C@@H]21)C(=O)N[C@@H](CC(C)C)C(=O)N[C@@H](CC(C)C)C(=O)N[C@@H](Cc1ccccc1)C(=O)N[C@H](C(=O)N[C@@H](Cc1ccccc1)C(=O)N[C@@H](CC(N)=O)C(=O)N[C@@H](Cc1ccc(O)cc1)C(=O)N[C@@H](CCC(=O)O)C(=O)N[C@@H](CCSC)C(=O)N[C@@H](CCC(=O)O)C(=O)N[C@@H](CC(=O)O)C(=O)N[C@@H](CCCCN)C(=O)N[C@@H](Cc1ccccc1)C(=O)N[C@@H](Cc1ccc(O)cc1)C(=O)O)C(C)C [Peptide P168] ({Biotin-PEG4}-NFDILLFVFNYEMEDKFY-OH; C-terminus assumed)
- kon [1]: 7490 M⁻¹ s⁻¹
- koff [1]: 0.00107 s⁻¹
- binding to S1 protein in ELISA-like assay (in words) [2]: higher binding affinity than the original ACE2 fragment (SBP1)

SMILES: CC[C@H](C)[C@H](NC(=O)[C@@H](NC(=O)[C@H](Cc1ccc(O)cc1)NC(=O)[C@H](Cc1ccccc1)NC(=O)[C@H](Cc1ccc(O)cc1)NC(=O)[C@@H](NC(=O)[C@H](CCC(=O)O)NC(=O)[C@H](CCSC)NC(=O)[C@H](Cc1c[nH]c2ccccc12)NC(=O)[C@H](Cc1c[nH]cn1)NC(=O)[C@H](CO)NC(=O)[C@H](Cc1ccccc1)NC(=O)[C@H](CCSC)NC(=O)[C@H](CC(=O)O)NC(=O)[C@H](Cc1c[nH]c2ccccc12)NC(=O)[C@H](CC(=O)O)NC(=O)[C@@H](NC(=O)[C@H](CCCCN)NC(=O)CCOCCOCCOCCOCCNC(=O)CCCC[C@@H]1SC[C@@H]2NC(=O)N[C@@H]21)[C@@H](C)O)[C@@H](C)CC)C(C)C)C(=O)O [Peptide P180] ({Biotin-PEG4}-KTDWDMFSHWMEIYFYVI-OH; C-terminus assumed)
- kon [1]: 3830 M⁻¹ s⁻¹
- koff [1]: 0.000929 s⁻¹
- binding to S1 protein in ELISA-like assay (in words) [2]: higher binding affinity than the original ACE2 fragment (SBP1)

SMILES: CC[C@H](C)[C@H](NC(=O)[C@H](CCC(=O)O)NC(=O)[C@H](Cc1ccc(O)cc1)NC(=O)[C@H](Cc1ccc(O)cc1)NC(=O)[C@H](CCSC)NC(=O)[C@H](Cc1c[nH]cn1)NC(=O)[C@H](CCSC)NC(=O)[C@H](Cc1c[nH]c2ccccc12)NC(=O)[C@H](CCCCN)NC(=O)[C@H](CC(=O)O)NC(=O)[C@H](Cc1c[nH]c2ccccc12)NC(=O)[C@H](CCC(=O)O)NC(=O)[C@@H](NC(=O)[C@H](CCCCN)NC(=O)CCOCCOCCOCCOCCNC(=O)CCCC[C@@H]1SC[C@@H]2NC(=O)N[C@@H]21)[C@@H](C)O)C(=O)N[C@@H](Cc1ccccc1)C(=O)N[C@@H](Cc1ccc(O)cc1)C(=O)N[C@@H](CCC(=O)O)C(=O)N[C@@H](CC(=O)O)C(=O)O [Peptide P100] ({Biotin-PEG4}-KTEWDKWMHMYYEIFYED-OH; C-terminus assumed)
- kon [1]: 3930 M⁻¹ s⁻¹
- koff [1]: 0.000728 s⁻¹
- binding to S1 protein in ELISA-like assay (in words) [2]: higher binding affinity than the original ACE2 fragment (SBP1)

Source: article PMC8571316 (Scientific Reports, 2021)
